# Patent publication US7087622B2, “Pyridone compounds as inhibitors of bacterial type III protein secreation systems” (priority 2004, dated 2006)
# Assays:
# Format in all cases: cell-based
# [1] = test system: SPI1 type III protein secretion system (SipB secretion); experiment: Secondary assay: Type III-dependent protein secretion of the SipB polypeptide by S. enterica (immunoblot); settings: Salmonella enterica, read-out: SipB IC50(uM)
# Procedure: Secondary assay: Type III-dependent protein secretion of the SipB polypeptide by S. enterica. The SipB protein of S. enterica is another effector of the SPI1 type III protein secretion system from S. enterica. In this cell-based procedure, the Type III-dependent secretion of SipB from the bacterial cytoplasm to the extracellular medium was measured through its reactivity with a cognate mouse monoclonal.
# Salmonella enterica cells growing either in the presence or in the absence of inhibitors are induced for the production of SipB. Following an established period of growth the cells are sedimented and the amount of SipB present in the supernatant is quantified with a scanning imager following application of immunoblot techniques. Detection may employ an anti-SipB mouse monoclonal antibody (e.g., obtained from Jorge Galan, SUNY at Stony Brook, N.Y.) followed by treatment with commercially available sheep anti-mouse polyclonal antibody conjugated with horseradish peroxidase. Thereafter the membrane is treated with a peroxidase chemiluminescent substrate and exposed to film for an appropriate exposure time. Inhibition may be measured relative to untreated controls.
# [2] = test system: type III protein secretion system of P. aeruginosa PA103 (ExoU secretion); experiment: Tertiary assay: Type III-dependent secretion of ExoU by P. aeruginosa PA103 (SDS-PAGE band quantitation); settings: Pseudomonas aeruginosa, ExoU secreted into extracellular medium
# From the text: Tertiary assay: inhibition of Type III protein secretion of effectors from a Pseudomonas aeruginosa system. Type III protein secretion is used by P. aeruginosa to secrete several essential virulence determinants. One effector of the type III protein secretion system of P. aeruginosa PA103 is the virulence determinants ExoU.
# The amount of Type III-dependent secretion of ExoU by P. aeruginosa PA103 can be determined in a cell-based assay by quantification of the 73.9 kDa ExoU protein secreted into the extracellular medium. Such quantitation can be achieved by growing strain PA103 in a deferrated medium in the presence of nitrilotriacetic acid (an inducer of Type III protein secretion in P. aeruginosa) and either in the presence or absence of putative inhibitors. After a prolonged growth period, the cells are sedimented and the supernatants concentrated by ammonium sulfate precipitation. The proteins in the resuspended pellets are separated by electrophoresis on SDS-polyacrylamide gels. After staining gels with Colloidal Blue™, the 73.9 kDa ExoU band is quantitated by scanning through an imager. The effects of inhibitors on the intensity of the ExoU band may be measured relative to that of untreated controls.
# [3] = test system: SPI1 type III protein secretion system (SopE-Bla secretion); experiment: Primary assay: Type III protein secretion of the chimeric SopE-Bla polypeptide by Salmonella enterica (nitrocefin hydrolysis); settings: read-out: SopE IC50(uM)
# From the text: Primary assay: Type III protein secretion of the chimeric SopÉ-Bla polypeptide by Salmonella enterica. This procedure is a cell-based assay that measures the type III-dependent secretion by Salmonella enterica of a plasmid-encoded chimeric polypeptide whose synthesis can be regulated, and which is endowed with an enzymatic activity that can be monitored calorimetrically by hydrolysis of a substrate that is unable to penetrate into the bacterial cytoplasm within the time constraints of the reaction. Thus, the colorimetric reaction is not influenced by SopÉ-Bla polypeptide in the bacterial cytoplasm. Instead, it effectively measures the amount of polypeptide that has been secreted from the S. enterica cytoplasm to the extracellular medium via type III system protein secretion.
# The SopÉ-Bla recombinant polypeptide consists of two functionally distinct domains spliced together. The N-terminus domain is encoded by a polynucleotide region specifying the signal for type III secretion of the SopE polypeptide of S. enterica, an effector of the SPI1 type III protein secretion system. The C-terminus domain of SopÉ-Bla consists of a 263 amino acid peptide sequence that corresponds to the TEM-1 β-lactamase expressed by plasmid pBR322 but without its N-terminal signal sequence. The TEM-1 β-lactamase part of the SopÉ-Bla chimeric polypeptide is used as a reporter enzyme. It is capable of hydrolyzing nitrocefin resulting in a product whose accumulation can be monitored by colorimetric detection. The secretion of the SopÉ-Bla chimeric polypeptide from the cytoplasm to the extracellular medium is dependent on type III protein secretion.
# For this procedure, cells grown under conditions known to favor a functional SPI1 secretion system are induced for expression of the SopÉ-Bla protein and grown either in the presence or in the absence of putative inhibitors for determined time. Nitrocefin is then added to the various cultures and its hydrolysis are used for quantitation. An inhibitor of Type III protein secretion is generally a compound that reduces the signal of the enzymatic reaction by decreasing the amount of SopÉ-Bla secreted into the extracellular medium.
SMILES,IC50 [1] [µM],IC50 [2] [µM],IC50 [3] [µM]
"O=C(Nc1cc(-c2ccc(-c3ccccc3)cc2)cn(C(CSCc2ccccc2)C(=O)O)c1=O)c1ccc(C(F)(F)F)cc1 (stereo in doubt) [Compound 14, (R)-3-Benzylsulfanyl-2-[5-biphenyl-4-yl-2-oxo-3-(4-trifluoromethylbenzoylamino)-2H-pyridi-1-yl]propionic acid]",7.1,31.6,31.3
"O=C(Nc1cc(-c2ccc(Oc3ccccc3)cc2)cn(C(CSCc2ccccc2)C(=O)O)c1=O)c1ccc(C(F)(F)F)cc1 (stereo in doubt) [Compound 15, (R)-3-Benzylsulfanyl-2-[2-oxo-5-(4-phenoxyphenyl)-3-(4-trifluoromethyl-benzoylamino)-2H-pyridin-1-yl]propionic acid]",67.9,83.4,9.1
"O=C(Nc1cc(-c2cccc3ccccc23)cn([C@@H](Cc2ccccc2)C(=O)O)c1=O)c1ccc(C(F)(F)F)cc1 [Compound 1, (S)-2-[5-Naphthalen-1-yl-2-oxo-3-(4-trifluoromethylbenzoylamino)-2H-pyridin-1-yl]-3-phenylpropionic acid]",82.8,82.8,14.4
"O=C(Nc1cc(-c2ccc(Oc3ccccc3)cc2)cn([C@@H](Cc2ccccc2)C(=O)O)c1=O)c1ccc(C(F)(F)F)cc1 [Compound 4, (S)-2-[2-Oxo-5-(4-phenoxyphenyl)-3-(4-trifluoromethylbenzoylamino)-2H-pyridin-1-yl]-3-phenylpropionic acid]",84.7,84.7,6.3
"O=Cc1ccc(-c2cc(NC(=O)c3ccc(C(F)(F)F)cc3)c(=O)n([C@@H](Cc3ccccc3)C(=O)O)c2)cc1 [Compound 5, (S)-2-[5-(4-Formylphenyl)-2-oxo-3-(4-trifluoromethylbenzoylamino)-2H-pyridin-1-yl]-3-phenylpropionic acid]",> 100,> 100,49.9
"COC(=O)c1ccc(-c2cc(NC(=O)c3ccc(C(F)(F)F)cc3)c(=O)n([C@@H](Cc3ccccc3)C(=O)O)c2)cc1 [Compound 6, (S)-4-[1-(1-Carboxy-2-phenethyl)-6-oxo-5-(4-trifluoromethylbenzoylamino)-1,6-dihydro-pyridin-3-yl]benzoic acid methyl ester]",> 100,> 100,53.6
"O=C(Nc1cc(-c2cccc3ccccc23)cn([C@@H](COCc2ccccc2)C(=O)O)c1=O)c1ccc(C(F)(F)F)cc1 [Compound 8, (S)-3-Benzyloxy-2-[5-naphthalen-1-yl-2-oxo-3-(4-trifluoromethylbenzoylamino)-2H-pyridin-1-yl]propionic acid]",49.2,> 100,29.5
"O=C(Nc1cc(-c2ccc(Oc3ccccc3)cc2)cn([C@@H](COCc2ccccc2)C(=O)O)c1=O)c1ccc(C(F)(F)F)cc1 [Compound 9, (S)-3-Benzyloxy-2-[2-oxo-5-(4-phenoxyphenyl)-3-(4-trifluoromethyl-benzoylamino)-2H-pyridin-1-yl]propionic acid]",26.2,> 100,10.1
"O=C(Nc1cc(-c2ccccc2Oc2ccccc2)cn([C@@H](COCc2ccccc2)C(=O)O)c1=O)c1ccc(C(F)(F)F)cc1 [Compound 10, (S)-3-Benzyloxy-2-[2-oxo-5-(2-phenoxyphenyl)-3-(4-trifluoromethyl-benzoylamino)-2H-pyridin-1-yl]propionic acid]",37.4,> 100,27
"O=C(Nc1cc(-c2ccc(Cl)c(Cl)c2)cn(C(Cc2ccc(Cl)cc2)C(=O)O)c1=O)c1ccc(C(F)(F)F)cc1 (stereo not drawn) [Compound 20, 3-(4-Chlorophenyl)-2-[5-(3,4-dichloro-phenyl)-2-oxo-3-(4-trifluoromethyl-benzoylamino)-2H-pyridin-1-yl]propionic acid]",> 100,> 100,2.7
"O=C(Nc1cc(-c2ccc(F)cc2F)cn(C(Cc2ccc(Cl)cc2)C(=O)O)c1=O)c1ccc(C(F)(F)F)cc1 (stereo not drawn) [Compound 21, 3-(4-Chlorophenyl)-2-[5-(2,4-difluorophenyl)-2-oxo-3-(4-trifluoromethyl-benzoylamino)-2H-pyridin-1-yl]propionic acid]",79,61.2,13.5
"O=C(Nc1cc(-c2cccc(C(F)(F)F)c2)cn(C(Cc2ccc(Cl)cc2)C(=O)O)c1=O)c1ccc(-c2ccccc2)cc1 (stereo not drawn) [Compound 22, 2-[3-[(Biphenyl-4-carbonyl)amino]-2-oxo-5-(3-trifluoromethylphenyl)-2H-pyridin-1-yl]-3-(4-chlorophenyl)propionic acid]",38.3,> 100,3.4
"O=C(Nc1cc(-c2cccc3c2sc2ccccc23)cn(C(Cc2ccc(Cl)cc2)C(=O)O)c1=O)c1ccc(C(F)(F)F)cc1 (stereo not drawn) [Compound 24, 3-(4-Chlorophenyl)-2-[5-dibenzothiophen-4-yl-2-oxo-3-(4-trifluoromethyl-benzoylamino)-2H-pyridin-1-yl]propionic acid]",67.1,62.4,1.6
"O=C(Nc1cc(-c2cccc(O)c2)cn(C(Cc2ccc(Cl)cc2)C(=O)O)c1=O)c1ccc(C(F)(F)F)cc1 (stereo not drawn) [Compound 30, 3-(4-Chlorophenyl)-2-[5-(3-hydroxyphenyl)-2-oxo-3-(4-trifluoromethyl-benzoylamino)-2H-pyridin-1-yl]propionic acid]",33.4,> 100,19.3
"O=C(Nc1cc(-c2ccc(Cl)cc2)cn(C(Cc2ccc(Cl)cc2)C(=O)O)c1=O)c1ccc(-c2ccccc2)cc1 (stereo not drawn) [Compound 33, 2-[3-[(Biphenyl-4-carbonyl)amino]-5-(4-chlorophenyl)-2-oxo-2H-pyridin-1-yl]-3(4-chlorophenyl)propionic acid]",39,> 50,7.6
"O=C(Nc1cc(-c2ccc(Cl)c(Cl)c2)cn(C(Cc2ccc(Cl)cc2)C(=O)O)c1=O)c1ccc(-c2ccccc2)cc1 (stereo not drawn) [Compound 34, 2-[3-[(Biphenyl-4-carbonyl)amino]-5-(3,4-dichlorophenyl)-2-oxo-2H-pyridin-1-yl]-3-(4-chlorophenyl)propionic acid]",24.8,> 100,8.7
"O=C(Nc1cc(-c2ccc(F)cc2)cn(C(Cc2ccc(Cl)cc2)C(=O)O)c1=O)c1ccc(-c2ccccc2)cc1 (stereo not drawn) [Compound 35, 2-[3-[(Biphenyl-4-carbonyl)amino]-5-(4-fluorophenyl)-2-oxo-2H-pyridin-1-yl]-3-(4-chlorophenyl)propionic acid]",58.4,7.5,2.3
"O=C(Nc1cc(-c2ccc(C(F)(F)F)cc2)cn(C(Cc2ccc(Cl)cc2)C(=O)O)c1=O)c1ccc(-c2ccccc2)cc1 (stereo not drawn) [Compound 38, 2-[3-[(Biphenyl-4-carbonyl)amino]-2-oxo-5-(4-trifluoromethylphenyl)-2H-pyridin-1-yl]-3-(4-chlorophenyl)propionic acid]",3.1,21.3,1.2
"O=C(Nc1cc(-c2ccc(O)cc2)cn(C(Cc2ccc(Cl)cc2)C(=O)O)c1=O)c1ccc(-c2ccccc2)cc1 (stereo not drawn) [Compound 39, 2-[3-[(Biphenyl-4-carbonyl)amino]-5-(4-hydroxyphenyl)-2-oxo-2H-pyridin-1-yl]-3-(4-chlorophenyl)propionic acid]",> 100,80.5,3.6
